Reference: patent US20230226007A1, “NANOPARTICULATE COMPOSITION” (Algiax Pharmaceuticals GmbH, priority 2020, published 2023)

Test: Solubility of AP-325 in different solvents at ambient temperature
Format: physicochemical
From the text: AP-325 is a pharmaceutical agent, which is currently in clinical development. […] For a better characterization of active ingredients with low solubility, a classification according to the BCS system (=Biopharmaceutics Classification System) was introduced (Guidance for Industry: Immediate release solid oral dosage forms and FDA, 1995). This BCS system distinguishes four categories based on the solubility and permeability of the active substance. At a pH value of below 7 AP-325 can be classified as a BCS class II drug substance. The low solubility of AP-325 negatively affects the absorption into the body after oral administration due to a limited absorption of the active agent in the small intestine (such as the jejunum or ileum), which is an essential absorption window for the uptake of a drug. Consequently, the therapeutic effect cannot be achieved.
FIG. 3: Solubility of AP-325 in different solvents at ambient temperature.

For `Cc1cc(NC(=O)/C(C#N)=C(\O)C2CC2)ccc1C(F)(F)F` [AP-325], the BCS classification (pH value of below 7) was “BCS class II” and the Solubility (physiological pH of 6.8 (phosphate buffer), ambient temperature) was “practically insoluble”.
